Test results from patent US6855712B2, “Combination of benzoquinazoline antifolates and protecting agents” (SmithKline Beecham Corporation, priority 1992, dated 2005).

What was measured:
[1] = test system: beagle dogs; test: Dog toxicity of Compound A given as iv bolus for five consecutive days, with or without oral folic acid or leucovorin; type: in vivo
[2] = test system: human tumor GC3TK; test: Mouse antitumor: human tumor GC3TK in the subrenal capsule of nude mice, Compound A ip bolus for five days; type: in vivo

Cc1nc2ccc3ccc(CNc4ccc5c(c4)CN([C@@H](CCC(=O)O)C(=O)O)C5=O)cc3c2c(=O)[nH]1 [Compound A, (S)-2-(5-(((1,2-Dihydro-3-methyl-1-oxobenzo[f]quinazolin-9-yl)methyl)amino)-1-oxo-2-isoindolinyl)glutaric acid]
lethality ([1]; 8 mg/kg iv bolus for five consecutive days, alone): lethal
deaths ([1]; 10 mg/kg iv 30 minutes after oral leucovorin (Wellcovorin) 10 mg/kg): no deaths occurred
deaths ([1]; 10 mg/kg iv 30 minutes after oral leucovorin (Wellcovorin) 50 mg/kg): no deaths occurred
deaths ([1]; 10 mg/kg iv 30 minutes after oral leucovorin (Wellcovorin) 100 mg/kg): no deaths occurred
deaths ([1]; 10 mg/kg iv 30 minutes after oral leucovorin (Wellcovorin) 200 mg/kg): no deaths occurred
lethality ([1]; 10 mg/kg iv, five consecutive days, given alone): lethal
lethality ([1]; 20 mg/kg iv bolus 30 minutes after oral folic acid 50 mg/kg): not lethal
Mouse antiumor (% I) ([2]; 3.2 mg/kg Compound A, folic acid 0 mg/kg, experiment with 50 mg/kg folic acid): 100 % I
Mouse antitumor (% I) ([2]; 3.2 mg/kg Compound A, folic acid 0 mg/kg, experiment with 500 mg/kg folic acid): 89 % I
Mouse antiumor (% I) ([2]; 3.2 mg/kg Compound A, folic acid 50 mg/kg): 100 % I
Mouse antitumor (% I) ([2]; 3.2 mg/kg Compound A, folic acid 500 mg/kg): 78 % I
Mouse antitumor (% I) ([2]; 3.2 mg/kg Compound A, leucovorin 0 mg/kg): 100 % I
Mouse antitumor (% I) ([2]; 3.2 mg/kg Compound A, leucovorin 200 mg/kg): 100 % I
inhibition of tumor growth ([2]; 3.2 mg/kg ip bolus for five days, no protectant): complete inhibition of tumor growth
Mouse antitumor (% I) ([2]; 10 mg/kg Compound A, folic acid 0 mg/kg, experiment with 50 mg/kg folic acid): >100 % I
Mouse antitumor (% I) ([2]; 10 mg/kg Compound A, folic acid 0 mg/kg, experiment with 500 mg/kg folic acid): >100 % I
Mouse antitumor (% I) ([2]; 10 mg/kg Compound A, folic acid 50 mg/kg): >100 % I
Mouse antitumor (% I) ([2]; 10 mg/kg Compound A, folic acid 500 mg/kg): >100 % I
Mouse antitumor (% I) ([2]; 10 mg/kg Compound A, leucovorin 0 mg/kg): >100 % I
Mouse antitumor (% I) ([2]; 10 mg/kg Compound A, leucovorin 200 mg/kg): >100 % I
inhibition of tumor growth ([2]; 10 mg/kg ip bolus for five days, no protectant): complete inhibition of tumor growth
inhibition of tumor growth ([2]; 50 mg/kg folic acid orally 30 minutes prior to the ip bolus dose of Compound A (3.2 or 10 mg/kg)): complete inhibition of tumor growth
inhibition of tumor growth ([2]; 200 mg/kg leucovorin orally 30 minutes prior to the ip bolus dose of Compound A (3.2 or 10 mg/kg)): complete inhibition of tumor growth
inhibition ([2]; another experiment, 3.2 mg/kg, absence of protectant): 89%
growth inhibition ([2]; another experiment, 10 mg/kg, absence of protectant): complete growth inhibition
tumor growth inhibition versus absence of folic acid ([2]; another experiment, 500 mg/kg folic acid orally 30 min prior to Compound A): not significantly different
